Measured values as given in patent US20260285834A1, “SUBSTITUTED PYRIDINE DERIVATIVES AS SARM1 INHIBITORS” (Nura Bio, Inc., priority 2022, published 2026).
Counter-ions that a name gives are not always drawn.

Target: T1, human SARM1(50-724) (Homo sapiens, UniProt Q6SZW1)
T1 construct: 40 nM human SARM1(50-724)
T1 sequence (Q6SZW1 50-724): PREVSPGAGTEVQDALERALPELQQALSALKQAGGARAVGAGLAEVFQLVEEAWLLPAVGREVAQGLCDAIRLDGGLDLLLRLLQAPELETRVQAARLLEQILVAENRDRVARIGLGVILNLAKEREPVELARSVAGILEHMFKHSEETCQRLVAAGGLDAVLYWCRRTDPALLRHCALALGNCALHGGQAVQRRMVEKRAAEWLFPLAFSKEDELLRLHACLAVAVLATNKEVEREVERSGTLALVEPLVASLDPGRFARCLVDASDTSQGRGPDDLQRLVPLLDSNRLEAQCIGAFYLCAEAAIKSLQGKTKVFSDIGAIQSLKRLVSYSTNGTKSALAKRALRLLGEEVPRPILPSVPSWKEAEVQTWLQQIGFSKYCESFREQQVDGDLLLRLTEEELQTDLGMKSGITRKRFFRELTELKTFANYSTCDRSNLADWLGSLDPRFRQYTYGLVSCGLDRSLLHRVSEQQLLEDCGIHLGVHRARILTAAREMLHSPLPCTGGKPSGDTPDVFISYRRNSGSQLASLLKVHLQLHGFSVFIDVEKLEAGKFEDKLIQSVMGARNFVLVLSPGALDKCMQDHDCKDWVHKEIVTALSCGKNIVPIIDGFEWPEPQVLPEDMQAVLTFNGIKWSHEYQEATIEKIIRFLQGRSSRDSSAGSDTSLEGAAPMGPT
Experiment: SARM1 biological assay: HPLC measurement of NAD and NAM peak areas
Type: biochemical
Conditions: not given
Description: Each reaction was run at a volume of 20 μL containing 50 μM compound (dissolved in DMSO; final concentration of DMSO is 1% v/v), 40 nM human SARM1(50-724), 0.3 mM NMN, 20 μM NAD, 1 mM TCEP, 25 mM HEPES pH 7.4, 10 mM KCl and 10 mM MgCl2. The reaction was incubated at room temperature for 60 minutes and quenched with 20 μL of 0.4% formic acid. The samples were run on Agilent HPLC 1260 Infinity II with Synergi 2.5 μM Fusion-RP 100 Å (100×3.0 mm) LC column from Phenomenex. Total run time for each sample was 4 minutes. The run was isocratic with 1.5% methanol in 40 mM ammonium acetate pH 6.0. Samples were run at a flow rate of 0.8 mL/min at 55° C. Peak areas of NAD and NAM were determined using OpenLAB CDS (Chem Station edition) software. For dose-response, the compound was diluted serially 1:3 in DMSO and added to the reaction starting at a final compound concentration of 100 μM in 1% DMSO.

Compound | IC50 [nM]
CC(c1ccncc1)c1c[nH]c(C(=O)C(F)(F)F)n1 (racemic) [Example 22, 2,2,2-Trifluoro-1-(4-(pyridine-4-yl)ethyl)-1H-imidazol-2-yl)ethan-1-one hydrochloride] | < 1000
FC(F)(F)[C@H]1CCO[C@H]1c1nc(Cc2ccncc2)c[nH]1 (relative stereo) [Example 27, (cis)-4-((2-(3-(trifluoromethyl)tetrahydrofuran-2-yl)-1H-imidazol-4-yl)methyl)pyridine] | 10000 to 100000
FC1(F)CC1c1nc(Cc2ccncc2)c[nH]1 (single isomer, unassigned) [Example 5A] | < 1000
C[C@]1(c2nc(Cc3ccncc3)c[nH]2)CC1(F)F (single isomer, unassigned) [Example 10A] | < 1000
C[C@@]1(c2nc(Cc3ccncc3)c[nH]2)CC1(F)F (single isomer, unassigned) [Example 10B] | < 1000
FC1(F)CC[C@H](c2nc(Cc3ccncc3)c[nH]2)C1 (single isomer, unassigned) [Example 11A] | < 1000
FC1(F)CC[C@@H](c2nc(Cc3ccncc3)c[nH]2)C1 (single isomer, unassigned) [Example 11B] | 1000 to 10000
FC1(F)C[C@@H]1Cc1nc(Cc2ccncc2)c[nH]1 (single isomer, unassigned) [Example 21A] | < 1000
FC1(F)C[C@H]1Cc1nc(Cc2ccncc2)c[nH]1 (single isomer, unassigned) [Example 21B] | < 1000
C[C@H](c1ccncc1)c1c[nH]c(C(=O)C(F)(F)F)n1 (single isomer, unassigned) [Example 23A, hydrochloride] | < 1000
C[C@@H](c1ccncc1)c1c[nH]c(C(=O)C(F)(F)F)n1 (single isomer, unassigned) [Example 23B, hydrochloride] | 1000 to 10000
FC(F)(F)[C@H]1C[C@@H](c2nc(Cc3ccncc3)c[nH]2)C1 (single isomer, unassigned) [Example 31A, (cis)-4-((2-(3-(Trifluoromethyl)cyclobutyl)-1H-imidazol-4-yl)methyl)pyridine] | 1000 to 10000
FC(F)(F)[C@H]1C[C@H](c2nc(Cc3ccncc3)c[nH]2)C1 (single isomer, unassigned) [Example 31B, (trans)-4-((2-(3-(Trifluoromethyl)cyclobutyl)-1H-imidazol-4-yl)methyl)pyridine] | 1000 to 10000
ClC1(Cl)C[C@@H]1c1nc(Cc2ccncc2)c[nH]1 (single isomer, unassigned) [Example 33A] | < 1000
ClC1(Cl)C[C@H]1c1nc(Cc2ccncc2)c[nH]1 (single isomer, unassigned) [Example 33B] | < 1000
F[C@@]1(Cl)C[C@@H]1c1nc(Cc2ccncc2)c[nH]1 (single isomer, unassigned) [Example 39A] | < 1000
F[C@]1(Cl)C[C@@H]1c1nc(Cc2ccncc2)c[nH]1 (single isomer, unassigned) [Example 39B] | < 1000
F[C@@]1(Cl)C[C@H]1c1nc(Cc2ccncc2)c[nH]1 (single isomer, unassigned) [Example 39C] | < 1000
F[C@]1(Cl)C[C@H]1c1nc(Cc2ccncc2)c[nH]1 (single isomer, unassigned) [Example 39D] | < 1000
FC1(F)CCN(c2nc(Cc3ccncc3)c[nH]2)CC1 [Example 1] | 1000 to 10000
FC1(F)CN(c2nc(Cc3ccncc3)c[nH]2)C1 [Example 2, 4-((2-(3,3-Difluoroazetidin-1-yl)-1H-imidazol-4-yl)methyl)pyridine] | 1000 to 10000
FC1(F)CCN(c2nc(Cc3ccncc3)c[nH]2)C1 [Example 3] | 1000 to 10000
Fc1cnccc1Cc1c[nH]c(C2CC(F)(F)C2)n1 [Example 4, 4-((2-(3,3-Difluorocyclobutyl)-1H-imidazol-4-yl)methyl)-3-fluoropyridine] | < 1000
Fc1cnccc1Cc1coc(C2CC(F)(F)C2)n1 [Example 4A, 2-(3,3-Difluorocyclobutyl)-4-((3-fluoropyridin-4-yl)methyl)oxazole] | 10000 to 100000

Compound | IC50 [nM]
ClC1(Cl)CC1c1nc(Cc2ccncc2)c[nH]1 (stereo not drawn) [Example 6, 4-((2-(2,2-Dichlorocyclopropyl)-1H-imidazol-4-yl)methyl)pyridine] | < 1000
FC1(F)CN(Cc2nc(Cc3ccncc3)c[nH]2)C1 [Example 7] | 1000 to 10000
OC1(C(F)(F)F)CC(c2nc(Cc3ccncc3)c[nH]2)C1 (stereo not drawn) [Example 8, 3-(4-(Pyridin-4-ylmethyl)-1H-imidazol-2-yl)-1-(trifluoromethyl)cyclobutan-1-ol] | 1000 to 10000
CC1(F)CC(c2nc(Cc3ccncc3)c[nH]2)C1 (stereo not drawn) [Example 9, 4-((2-(3-Fluoro-3-methylcyclobutyl)-1H-imidazol-4-yl)methyl)pyridine] | < 1000
OC1(c2nc(Cc3ccncc3)c[nH]2)CCC(F)(F)CC1 [Example 12] | 1000 to 10000
FC1(F)CCC(c2nc(Cc3ccncc3)c[nH]2)CC1 [Example 13, 4-((2-(4,4-Difluorocyclohexyl)-1H-imidazol-4-yl)methyl)pyridine] | 1000 to 10000
Fc1cnccc1Cc1c[nH]c(C2CC2(F)F)n1 (stereo not drawn) [Example 14, 4-((2-(2,2-Difluorocyclopropyl)-1H-imidazol-4-yl)methyl)-3-fluoropyridine] | < 1000
FC1(F)CC(c2nc(Cc3ccncc3)c[nH]2)C1 [Example 15A, 4-((2-(3,3-Difluorocyclobutyl)-1H-imidazol-4-yl)methyl)pyridine] | < 1000
FC1(F)CC(c2nc(Cc3ccncc3)co2)C1 [Example 15B, 2-(3,3-Difluorocyclobutyl)-4-(pyridin-4-ylmethyl)oxazole] | 10000 to 100000
FC(F)(F)C1(c2nc(Cc3ccncc3)c[nH]2)CC1 [Example 16] | 1000 to 10000
Fc1cnccc1Cc1c[nH]c(C2CCC(F)(F)CC2)n1 [Example 17A, 4-((2-(4,4-Difluorocyclohexyl)-1H-imidazol-4-yl)methyl)-3-fluoropyridine] | 1000 to 10000
Fc1cnccc1Cc1coc(C2CCC(F)(F)CC2)n1 [Example 17B, 2-(4,4-Difluorocyclohexyl)-4-((3-fluoropyridin-4-yl)methyl)oxazole] | 10000 to 100000
Fc1cnccc1Cc1c[nH]c(C2CCC(F)(F)C2)n1 (stereo not drawn) [Example 18A, 4-((2-(3,3-Difluorocyclopentyl)-1H-imidazol-4-yl)methyl)-3-fluoropyridine] | 1000 to 10000
Fc1cnccc1Cc1coc(C2CCC(F)(F)C2)n1 (stereo not drawn) [Example 18B, 2-(3,3-Difluorocyclopentyl)-4-((3-fluoropyridin-4-yl)methyl)oxazole] | 10000 to 100000
ClC1(Cl)CC(c2nc(Cc3ccncc3)c[nH]2)C1 [Example 19A, 4-((2-(3,3-Dichlorocyclobutyl)-1H-imidazol-4-yl)methyl)pyridine] | < 1000
ClC1(Cl)CC(c2nc(Cc3ccncc3)co2)C1 [Example 19B, 2-(3,3-Dichlorocyclobutyl)-4-(pyridine-4-ylmethyl)oxazole] | 1000 to 10000
FC1(F)CC1Cc1nc(Cc2ccncc2)co1 (stereo not drawn) [Example 20B, 2-((2,2-Difluorocyclopropyl)methyl)-4-(pyridine-4ylmethyl)oxazole] | 10000 to 100000
FC1(F)CC(Cc2nc(Cc3ccncc3)c[nH]2)C1 [Example 24, 4-((2-((3,3-Difluorocyclobutyl)methyl)-1H-imidazol-4-yl)methyl)pyridine] | 1000 to 10000
FC(F)(F)C1(Cc2nc(Cc3ccncc3)c[nH]2)CC1 [Example 25] | < 1000
FC(F)(F)C1CC1c1nc(Cc2ccncc2)c[nH]1 (stereo not drawn) [Example 26, 4-((2-(2-(Trifluoromethyl)cyclopropyl)-1H-imidazol-4-yl)methyl)pyridine] | 1000 to 10000
FC(F)(F)Sc1ncc(Cc2ccncc2)[nH]1 [Example 28, 4-((2-((Trifluoromethyl)thio)-1H-imidazol-5-yl)methyl)pyridine] | < 1000
F[C@H]1C[C@@H](c2nc(Cc3ccncc3)c[nH]2)C1 [Example 29, (cis)-4-((2-(3-Fluorocyclobutyl)-1H-imidazol-4-yl)methyl)pyridine] | < 1000
F[C@H]1C[C@H](c2nc(Cc3ccncc3)c[nH]2)C1 [Example 30, (trans)-4-((2-(3-Fluorocyclobutyl)-1H-imidazol-4-yl)methyl)pyridine] | 1000 to 10000

Same assay, conditions: read-out: Average IC50; 40 nM human SARM1(50-724), 0.3 mM NMN, 20 μM NAD, 60 min at room temperature; dose-response 1:3 serial dilution from 100 μM

Compound | IC50 [nM]
FC1(F)CC1c1nc(Cc2ccncc2)c[nH]1 (single isomer, unassigned) [Example 5B] | < 1000
